Laboratory results reported in patent US20260234129A1, “NOVEL IMIDAZOLE DERIVATIVE AND USE THEREOF” (PELEMED CO., LTD., priority 2023, published 2026).

Experiments:
Experiment in all cases: scanMax kinase panel (Eurofins)
Format in all cases: binding
AURKB = target: T1, AURKB (Homo sapiens, UniProt Q96GD4); conditions: read-out: % control
T1 construct: purchased Eurofins
Protocol: (§1) The following assay method was performed to evaluate the inhibitory activities of a compound according to the present invention with respect to various enzymes. […] The compound was applied to the enzyme at a concentration of 1 μM, dissolved in DMSO, and the % control was determined according to Equation 1 below.
(§2) Here, the positive control refers to a compound corresponding to 0% control, and the negative control refers to a compound corresponding to 100% control.

HIPK2 = target: T2, HIPK2 (Homo sapiens, UniProt Q9H2X6); conditions: HIPK2, 1 μM; read-out: % control
T2 construct: purchased Eurofins scanMax® kinase panel
Protocol: as §1, §2

[1] = target: T3, ABL1(Y253F)-phosphorylated (Homo sapiens, UniProt P00519, Y253F); conditions: read-out: % control
T3 construct: purchased Eurofins
Protocol: as §1, §2

TRKA = target: T4, TRKA (Homo sapiens, UniProt P04629); conditions: read-out: % control
T4 construct: purchased Eurofins scanMax kinase panel
Protocol: as §1, §2

PAK2 = target: T5, PAK2 (Homo sapiens, UniProt Q13177); conditions: PAK2, 1 μM; read-out: % control
T5 construct: purchased Eurofins scanMax kinase panel
Protocol: as §1, §2

RET = target: T6, RET (Homo sapiens, UniProt P07949); conditions: read-out: % control
T6 construct: purchased Eurofins scanMax kinase panel
Protocol: as §1, §2

KIT = target: T7, KIT (Homo sapiens, UniProt P10721); conditions: read-out: % control
T7 construct: purchased Eurofins
Protocol: as §1, §2

YES1 = target: T8, YES1 (Homo sapiens, UniProt P07947); conditions: YES1, 1 μM; read-out: % control
T8 construct: purchased Eurofins scanMax kinase panel
Protocol: as §1, §2

RET(M918T) = target: T9, RET(M918T) (Homo sapiens, UniProt P07949, M918T); conditions: read-out: % control
T9 construct: purchased Eurofins scanMax kinase panel
Protocol: as §1, §2

PIM2 = target: T10, PIM2 (Homo sapiens, UniProt Q9P1W9); conditions: PIM2, 1 μM; read-out: % control
T10 construct: purchased Eurofins scanMax kinase panel
Protocol: as §1, §2

CDK7 = target: T11, CDK7 (Homo sapiens, UniProt P50613); conditions: CDK7, 1 μM; read-out: % control
T11 construct: purchased Eurofins scanMax® kinase panel
Protocol: as §1, §2

PAK3 = target: T12, PAK3 (Homo sapiens, UniProt O75914); conditions: PAK3, 1 μM; read-out: % control
T12 construct: purchased Eurofins scanMax kinase panel
Protocol: as §1, §2

GSK3B = target: T13, GSK3B (Homo sapiens, UniProt P49841); conditions: read-out: % control
T13 construct: purchased Eurofins scanMax® kinase panel
Protocol: as §1, §2

GSK3A = target: T14, GSK3A (Homo sapiens, UniProt P49840); conditions: read-out: % control
T14 construct: purchased Eurofins scanMax® kinase panel
Protocol: as §1, §2

PIM1 = target: T15, PIM1 (Homo sapiens, UniProt P11309); conditions: PIM1, 1 μM; read-out: % control
T15 construct: purchased Eurofins scanMax kinase panel
Protocol: as §1, §2

PIM3 = target: T16, PIM3 (Homo sapiens, UniProt Q86V86); conditions: PIM3, 1 μM; read-out: % control
T16 construct: purchased Eurofins scanMax kinase panel
Protocol: as §1, §2

[2] = target: T17, ABL1(H396P)-nonphosphorylated (Homo sapiens, UniProt P00519, H396P); conditions: read-out: % control
T17 construct: purchased Eurofins
Protocol: as §1, §2

KIT(D816H) = target: T18, KIT(D816H) (Homo sapiens, UniProt P10721, D816H); conditions: read-out: % control
T18 construct: purchased Eurofins
Protocol: as §1, §2

TRKC = target: T19, TRKC (Homo sapiens, UniProt Q16288); conditions: read-out: % control
T19 construct: purchased Eurofins scanMax kinase panel
Protocol: as §1, §2

PAK6 = target: T20, PAK6 (Homo sapiens, UniProt Q9NQU5); conditions: PAK6, 1 μM; read-out: % control
T20 construct: purchased Eurofins scanMax kinase panel
Protocol: as §1, §2

CDK4-cyclinD3 = target: T21, CDK4-cyclinD3 (Homo sapiens, UniProt P11802); conditions: CDK4-cyclinD3, 1 μM; read-out: % control
T21 construct: purchased Eurofins scanMax® kinase panel
Protocol: as §1, §2

MAP3K3 = target: T22, MAP3K3 (Homo sapiens, UniProt Q99759); conditions: MAP3K3, 1 μM; read-out: % control
T22 construct: purchased Eurofins
Protocol: as §1, §2

MEK2 = target: T23, MEK2 (Homo sapiens, UniProt P36507); conditions: MEK2, 1 μM; read-out: % control
T23 construct: purchased Eurofins
Protocol: as §1, §2

ROCKI = target: T24, ROCKI (Homo sapiens, UniProt Q13464); conditions: read-out: % control
T24 construct: purchased Eurofins scanMax kinase panel
Protocol: as §1, §2

[3] = target: T25, JAKI(JH1domain-catalytic) (Homo sapiens, UniProt P23458); conditions: read-out: % control
T25 construct: JAKI(JH1domain-catalytic); purchased Eurofins
Protocol: as §1, §2

[4] = target: T26, ABL1(Q252H)-nonphosphorylated (Homo sapiens, UniProt P00519, Q252H); conditions: read-out: % control
T26 construct: purchased Eurofins
Protocol: as §1, §2

SRC = target: T27, SRC (Homo sapiens, UniProt P12931); conditions: read-out: % control
T27 construct: purchased Eurofins scanMax kinase panel
Protocol: as §1, §2

PAK5 = conditions: PAK5, 1 μM
Protocol: as §1, §2

[5] = target: T28, ABL1(E255K)-phosphorylated (Homo sapiens, UniProt P00519, E255K); conditions: read-out: % control
T28 construct: purchased Eurofins
Protocol: as §1, §2

ROCK2 = target: T29, ROCK2 (Homo sapiens, UniProt O75116); conditions: ROCK2, 1 μM; read-out: % control
T29 construct: purchased Eurofins scanMax kinase panel
Protocol: as §1, §2

MEK6 = target: T30, MEK6 (Homo sapiens, UniProt P52564); conditions: MEK6, 1 μM; read-out: % control
T30 construct: purchased Eurofins scanMax kinase panel
Protocol: as §1, §2

ERK4 = target: T31, ERK4 (Homo sapiens, UniProt P31152); conditions: ERK4, 1 μM; read-out: % control
T31 construct: purchased Eurofins scanMax® kinase panel
Protocol: as §1, §2

IRAK3 = target: T32, IRAK3 (Homo sapiens, UniProt Q9Y616); conditions: IRAK3, 1 μM; read-out: % control
T32 construct: purchased Eurofins
Protocol: as §1, §2

ERK3 = target: T33, ERK3 (Homo sapiens, UniProt Q16659); conditions: ERK3, 1 μM; read-out: % control
T33 construct: purchased Eurofins scanMax® kinase panel
Protocol: as §1, §2

T18 sequence (P10721 26-976 D816H): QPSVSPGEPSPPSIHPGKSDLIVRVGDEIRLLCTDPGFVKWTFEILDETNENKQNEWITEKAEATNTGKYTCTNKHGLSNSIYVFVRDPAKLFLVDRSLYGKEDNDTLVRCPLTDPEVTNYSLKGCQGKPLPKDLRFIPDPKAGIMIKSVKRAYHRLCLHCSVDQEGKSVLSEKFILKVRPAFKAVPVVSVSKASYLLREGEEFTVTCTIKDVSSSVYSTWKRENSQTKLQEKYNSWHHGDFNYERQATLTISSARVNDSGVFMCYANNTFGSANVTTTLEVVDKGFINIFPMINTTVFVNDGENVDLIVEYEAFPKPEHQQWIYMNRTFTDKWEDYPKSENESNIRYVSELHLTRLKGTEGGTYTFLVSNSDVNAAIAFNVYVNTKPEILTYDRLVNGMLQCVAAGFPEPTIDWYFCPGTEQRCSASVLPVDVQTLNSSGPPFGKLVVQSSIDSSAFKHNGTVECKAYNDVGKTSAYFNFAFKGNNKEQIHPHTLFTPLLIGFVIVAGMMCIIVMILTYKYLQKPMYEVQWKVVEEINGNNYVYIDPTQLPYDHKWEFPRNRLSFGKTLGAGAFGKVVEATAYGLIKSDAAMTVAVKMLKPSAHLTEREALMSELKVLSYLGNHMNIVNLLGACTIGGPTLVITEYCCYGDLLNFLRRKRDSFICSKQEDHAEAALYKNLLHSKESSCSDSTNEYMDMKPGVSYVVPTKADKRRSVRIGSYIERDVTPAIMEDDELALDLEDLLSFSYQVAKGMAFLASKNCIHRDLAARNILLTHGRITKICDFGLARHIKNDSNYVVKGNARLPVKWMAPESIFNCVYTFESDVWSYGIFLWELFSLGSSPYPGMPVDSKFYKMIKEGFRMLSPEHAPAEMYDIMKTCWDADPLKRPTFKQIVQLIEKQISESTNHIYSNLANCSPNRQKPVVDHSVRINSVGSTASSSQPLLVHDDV
T29 sequence (O75116 whole entry): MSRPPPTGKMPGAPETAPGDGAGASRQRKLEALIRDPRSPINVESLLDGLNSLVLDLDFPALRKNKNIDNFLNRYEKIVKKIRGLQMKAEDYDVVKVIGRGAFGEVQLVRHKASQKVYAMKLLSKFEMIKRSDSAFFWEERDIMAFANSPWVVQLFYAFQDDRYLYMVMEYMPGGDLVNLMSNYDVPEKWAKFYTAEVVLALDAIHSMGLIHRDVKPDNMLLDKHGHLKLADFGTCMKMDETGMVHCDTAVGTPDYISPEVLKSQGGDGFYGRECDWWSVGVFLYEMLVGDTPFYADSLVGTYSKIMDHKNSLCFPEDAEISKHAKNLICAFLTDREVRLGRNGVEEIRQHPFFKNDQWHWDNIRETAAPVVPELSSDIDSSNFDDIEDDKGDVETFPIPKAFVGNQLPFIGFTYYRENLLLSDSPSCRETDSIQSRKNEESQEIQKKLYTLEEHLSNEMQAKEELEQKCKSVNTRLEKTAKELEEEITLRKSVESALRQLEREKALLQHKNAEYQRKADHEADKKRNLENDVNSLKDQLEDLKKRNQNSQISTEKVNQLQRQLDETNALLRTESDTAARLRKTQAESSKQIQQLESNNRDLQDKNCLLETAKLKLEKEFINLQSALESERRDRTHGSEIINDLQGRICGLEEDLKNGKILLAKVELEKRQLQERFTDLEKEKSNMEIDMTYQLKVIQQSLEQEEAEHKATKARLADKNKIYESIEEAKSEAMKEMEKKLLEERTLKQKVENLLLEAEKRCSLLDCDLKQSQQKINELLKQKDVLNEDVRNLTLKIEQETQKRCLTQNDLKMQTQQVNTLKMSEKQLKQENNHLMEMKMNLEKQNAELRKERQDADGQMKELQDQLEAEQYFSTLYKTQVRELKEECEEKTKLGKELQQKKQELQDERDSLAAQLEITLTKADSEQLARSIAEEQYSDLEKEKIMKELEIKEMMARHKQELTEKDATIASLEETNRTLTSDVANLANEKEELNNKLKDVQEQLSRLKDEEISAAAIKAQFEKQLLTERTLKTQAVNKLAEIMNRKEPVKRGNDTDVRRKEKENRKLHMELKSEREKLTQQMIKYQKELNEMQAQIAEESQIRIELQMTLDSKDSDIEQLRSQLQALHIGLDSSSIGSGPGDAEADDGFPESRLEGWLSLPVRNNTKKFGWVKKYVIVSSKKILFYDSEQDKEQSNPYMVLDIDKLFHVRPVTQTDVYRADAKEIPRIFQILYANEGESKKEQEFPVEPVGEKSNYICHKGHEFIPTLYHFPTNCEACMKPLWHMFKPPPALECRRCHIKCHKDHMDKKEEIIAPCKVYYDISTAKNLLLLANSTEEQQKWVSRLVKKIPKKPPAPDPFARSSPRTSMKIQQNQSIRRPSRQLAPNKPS
T8 sequence (P07947 whole entry): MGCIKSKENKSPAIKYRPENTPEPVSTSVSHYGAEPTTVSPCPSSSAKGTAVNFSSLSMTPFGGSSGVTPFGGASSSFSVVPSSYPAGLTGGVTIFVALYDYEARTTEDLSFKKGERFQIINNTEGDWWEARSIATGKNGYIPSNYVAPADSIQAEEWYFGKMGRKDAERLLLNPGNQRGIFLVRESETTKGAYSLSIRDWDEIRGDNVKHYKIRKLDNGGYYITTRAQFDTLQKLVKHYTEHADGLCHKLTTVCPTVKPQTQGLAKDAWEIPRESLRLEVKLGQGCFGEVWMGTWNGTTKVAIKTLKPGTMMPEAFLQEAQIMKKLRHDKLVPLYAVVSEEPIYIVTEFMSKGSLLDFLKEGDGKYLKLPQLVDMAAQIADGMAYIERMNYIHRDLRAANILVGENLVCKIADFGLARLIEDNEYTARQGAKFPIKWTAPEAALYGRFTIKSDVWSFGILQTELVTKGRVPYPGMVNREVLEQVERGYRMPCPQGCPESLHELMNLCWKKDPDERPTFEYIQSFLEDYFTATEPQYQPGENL
T13 sequence (P49841 whole entry): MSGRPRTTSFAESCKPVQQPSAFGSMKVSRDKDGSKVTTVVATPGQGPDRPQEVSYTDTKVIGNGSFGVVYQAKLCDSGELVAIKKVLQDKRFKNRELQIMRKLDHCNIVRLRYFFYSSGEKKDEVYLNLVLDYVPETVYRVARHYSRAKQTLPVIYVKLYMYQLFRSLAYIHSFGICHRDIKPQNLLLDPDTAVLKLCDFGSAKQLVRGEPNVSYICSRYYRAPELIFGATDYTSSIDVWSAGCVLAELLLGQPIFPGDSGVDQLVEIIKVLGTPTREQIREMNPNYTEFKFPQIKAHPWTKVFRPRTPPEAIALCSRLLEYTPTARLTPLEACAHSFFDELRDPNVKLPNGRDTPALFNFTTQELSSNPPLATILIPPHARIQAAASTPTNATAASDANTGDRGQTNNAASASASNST
T14 sequence (P49840 whole entry): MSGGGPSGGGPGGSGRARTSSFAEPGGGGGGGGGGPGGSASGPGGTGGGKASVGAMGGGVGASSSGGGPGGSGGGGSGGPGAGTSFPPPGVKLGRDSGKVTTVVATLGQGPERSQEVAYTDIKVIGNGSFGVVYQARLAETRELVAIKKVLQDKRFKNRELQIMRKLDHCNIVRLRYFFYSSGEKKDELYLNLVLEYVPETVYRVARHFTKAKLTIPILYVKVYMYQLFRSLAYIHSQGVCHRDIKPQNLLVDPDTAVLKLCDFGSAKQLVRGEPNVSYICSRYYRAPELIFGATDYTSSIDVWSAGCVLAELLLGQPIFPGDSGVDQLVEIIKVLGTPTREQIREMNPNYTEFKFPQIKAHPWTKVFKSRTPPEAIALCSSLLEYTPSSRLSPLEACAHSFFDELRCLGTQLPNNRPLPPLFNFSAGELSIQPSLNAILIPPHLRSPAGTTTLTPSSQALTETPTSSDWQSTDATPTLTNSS
T2 sequence (Q9H2X6 whole entry): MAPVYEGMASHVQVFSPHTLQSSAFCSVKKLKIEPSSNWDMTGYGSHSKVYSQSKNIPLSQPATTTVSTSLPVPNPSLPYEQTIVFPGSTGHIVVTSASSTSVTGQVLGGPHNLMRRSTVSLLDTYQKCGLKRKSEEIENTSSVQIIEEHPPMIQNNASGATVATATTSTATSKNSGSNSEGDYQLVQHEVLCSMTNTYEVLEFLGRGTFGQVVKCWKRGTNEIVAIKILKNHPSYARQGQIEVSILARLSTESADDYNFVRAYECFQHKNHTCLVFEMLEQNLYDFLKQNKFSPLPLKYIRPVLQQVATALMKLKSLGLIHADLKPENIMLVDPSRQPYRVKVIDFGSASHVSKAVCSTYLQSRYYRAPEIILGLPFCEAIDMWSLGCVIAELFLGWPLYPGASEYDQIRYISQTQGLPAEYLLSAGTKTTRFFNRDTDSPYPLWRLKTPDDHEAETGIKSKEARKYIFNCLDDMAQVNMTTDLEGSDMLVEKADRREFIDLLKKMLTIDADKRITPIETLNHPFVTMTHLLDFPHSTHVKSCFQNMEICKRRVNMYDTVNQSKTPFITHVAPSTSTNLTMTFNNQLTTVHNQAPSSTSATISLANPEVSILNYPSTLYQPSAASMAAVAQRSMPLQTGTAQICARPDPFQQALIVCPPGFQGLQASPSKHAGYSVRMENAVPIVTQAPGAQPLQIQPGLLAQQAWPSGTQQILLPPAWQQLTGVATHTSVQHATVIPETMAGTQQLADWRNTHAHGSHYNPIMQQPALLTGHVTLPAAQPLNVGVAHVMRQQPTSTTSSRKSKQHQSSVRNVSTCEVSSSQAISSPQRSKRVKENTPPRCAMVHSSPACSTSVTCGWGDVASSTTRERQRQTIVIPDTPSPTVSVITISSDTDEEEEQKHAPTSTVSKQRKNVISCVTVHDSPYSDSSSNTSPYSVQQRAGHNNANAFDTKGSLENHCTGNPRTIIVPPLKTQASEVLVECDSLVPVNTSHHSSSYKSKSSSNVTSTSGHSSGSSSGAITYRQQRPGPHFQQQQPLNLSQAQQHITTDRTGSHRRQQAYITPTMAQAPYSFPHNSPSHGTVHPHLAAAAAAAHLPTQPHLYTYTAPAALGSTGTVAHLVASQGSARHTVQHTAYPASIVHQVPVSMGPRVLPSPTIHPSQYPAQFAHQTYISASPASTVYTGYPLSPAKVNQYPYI
T7 sequence (P10721 26-976): as the sequence (P10721 26-976 D816H) above, with H791D counted along it

Molecule `COc1ccc2nc(-c3n[nH]c4ccc(C(=O)N[C@H]5CC[C@H](N)C5)cc34)[nH]c2c1` [Example 32, N-((1S,3S)-3-aminocyclopentyl)-3-(6-methoxy-1H-benzo[d]imidazol-2-yl)-1H-indazole-5-carboxamide] has a remaining binding at 1 µM (AURKB) of under 10%, a remaining binding at 1 µM (HIPK2) of under 10% and a remaining binding at 1 µM [1] of under 10%. For the same molecule, the remaining binding at 1 µM (TRKA) was under 10%, the remaining binding at 1 µM (PAK2) was under 10% and the remaining binding at 1 µM (RET) was under 10%. It also gave a remaining binding at 1 µM (KIT) of under 10%, a remaining binding at 1 µM (YES1) of under 10% and a remaining binding at 1 µM (RET(M918T)) of under 10%. The remaining binding at 1 µM (PIM2) was under 10%, the remaining binding at 1 µM (CDK7) was under 10% and the remaining binding at 1 µM (PAK3) was under 10%. It also gave a remaining binding at 1 µM (GSK3B) of under 10%, a remaining binding at 1 µM (GSK3A) of under 10% and a remaining binding at 1 µM (PIM1) of under 10%. For the same molecule, the remaining binding at 1 µM (PIM3) was under 10%, the remaining binding at 1 µM [2] was under 10% and the remaining binding at 1 µM (KIT(D816H)) was under 10%. For the same molecule, the remaining binding at 1 µM (TRKC) was under 10%, the remaining binding at 1 µM (PAK6) was under 10% and the remaining binding at 1 µM (CDK4-cyclinD3) was under 10%. For the same molecule, the remaining binding at 1 µM (MAP3K3) was under 10%, the remaining binding at 1 µM (MEK2) was under 10% and the remaining binding at 1 µM (ROCKI) was under 10%. The remaining binding at 1 µM [3] was under 10%, the remaining binding at 1 µM [4] was under 10% and the remaining binding at 1 µM (SRC) was under 10%. The “% control” value (PAK5) was “less than 10 % control”, the remaining binding at 1 µM [5] was under 10% and the remaining binding at 1 µM (ROCK2) was under 10%. It also gave a remaining binding at 1 µM (MEK6) of under 10%, a remaining binding at 1 µM (ERK4) of under 10% and a remaining binding at 1 µM (IRAK3) of under 10%. It also gave a remaining binding at 1 µM (ERK3) of under 10%.
